Assay [1] deals with T1, MCT1 (Homo sapiens, UniProt P53985).
T1 construct: a human erythroleukemia line predominantly expressing MCT1, a small amount of MCT2 and no MCT4; host or cells: K562
T1 sequence (P53985 1-500): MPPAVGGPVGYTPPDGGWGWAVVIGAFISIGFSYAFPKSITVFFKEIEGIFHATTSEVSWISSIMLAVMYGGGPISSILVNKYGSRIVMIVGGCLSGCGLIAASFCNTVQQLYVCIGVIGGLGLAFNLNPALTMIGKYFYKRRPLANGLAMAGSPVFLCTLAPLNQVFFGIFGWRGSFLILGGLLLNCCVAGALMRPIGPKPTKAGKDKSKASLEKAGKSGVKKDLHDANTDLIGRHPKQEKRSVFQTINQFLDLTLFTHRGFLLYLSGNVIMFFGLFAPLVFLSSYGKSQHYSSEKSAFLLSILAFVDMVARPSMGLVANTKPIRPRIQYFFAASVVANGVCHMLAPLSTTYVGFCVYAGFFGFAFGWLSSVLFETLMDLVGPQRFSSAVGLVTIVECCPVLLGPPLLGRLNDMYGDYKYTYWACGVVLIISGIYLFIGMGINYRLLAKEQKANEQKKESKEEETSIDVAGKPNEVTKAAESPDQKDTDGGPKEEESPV
The assay can be described thus: Assay (c): FLIPR BCECF lactate influx in K562 cells. The following applies: mean of at least three repeats, read-out: MCT1 FLIPR pIC50 (K562) (converted). The assay is classed as cell-based.
Experimental: (§1) Cells were loaded with the pH sensitive dye BCECFAM(Invitrogen #B11150) before being washed to remove excess dye and seeded into the assay plates—directly onto the test compound—at a density of 15,000 cells/well (NCI—H358) or 30,000 cells/well (K562), in 30 μl HBSS with 1 mM [final] […] Assay plates were lidded and spun in a plate centrifuge at 170 g for 1 minute. Plates were then wrapped in foil and incubated in the dark for 1 hour at room temperature.
(§2) Following incubation with test compound, 10 μl of 25 mM Sodium-L-Lactate (Sigma #L7022) made up in HBSS with 1 mM [final] […] This addition was performed directly on the FLIPR Tetra platform (Molecular Devices) as part of a real-time kinetic read protocol. […] A percentage change from base-line was calculated for each test well and values normalised to control wells—treated with either DMSO (maximum assay signal) or chemistry related to that described in this patent (minimum assay signal)—before fitting concentration response curves to determine an IC50 value.

The target of assay [2] is T2, MCT4 (Homo sapiens, UniProt O15427).
T2 sequence (O15427 1-465): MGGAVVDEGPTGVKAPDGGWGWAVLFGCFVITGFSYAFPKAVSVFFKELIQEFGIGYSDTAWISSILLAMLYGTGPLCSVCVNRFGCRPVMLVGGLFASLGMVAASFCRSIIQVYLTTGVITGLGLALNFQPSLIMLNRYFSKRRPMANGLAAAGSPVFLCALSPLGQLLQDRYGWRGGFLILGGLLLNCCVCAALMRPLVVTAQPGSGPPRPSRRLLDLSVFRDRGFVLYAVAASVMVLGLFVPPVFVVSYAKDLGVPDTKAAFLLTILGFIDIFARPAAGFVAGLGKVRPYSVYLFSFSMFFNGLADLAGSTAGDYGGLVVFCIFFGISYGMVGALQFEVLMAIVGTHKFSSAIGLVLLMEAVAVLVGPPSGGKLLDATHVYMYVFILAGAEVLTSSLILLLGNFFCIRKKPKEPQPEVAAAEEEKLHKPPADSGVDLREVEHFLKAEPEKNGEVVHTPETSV
The assay can be described thus: cell-based.
Experimental: as §1, §2

The target in assay [3] is T2, MCT4. The assay can be described thus: Assay (d): FLIPR BCECF lactate influx in INS-1 MCT4 cells. The following applies: INS-1 cells stably expressing human MCT4; mean of at least three repeats; read-out: MCT4 FLIPR pIC50 (INS-1) (converted). The assay is classed as cell-based, rat. Also noted: expressed in transfected cells. The method, then:
INS-1 MCT4 cells were generated through transfection of the parental cell background with the following DNA sequence, inserted into a pcDNA3.1 (ThermoFisher #V79020) mammalian expression vector:
The resultant cell pool was continually cultured at 37° C. and 5% CO2 under antibiotic selection in RPMI (Sigma #R0883) medium containing 1% L glutamine (Sigma #G7513), 10% FBS (Sigma #F7524), 10 mM [final] […] An individual clone was selected and expanded before being cryopreserved in a number of individual vials for continued use. Prior to testing in the biological assay, an individual INS-1 MCT4 cryovial was defrosted and continually passaged over a number of weeks—in the Geneticin selection media described previously—to obtain the requesite cell number.

Assay [4] has as its target T2, MCT4. Nature of the assay: Assay (a): lactate efflux from SK-Br-3 cells (lactate in media, 4 h). Also noted: a natively glycolytic human breast adenocarcinoma line predominantly expressing MCT4; host or cells: SK-Br-3. The following applies: mean of at least three repeats (Example 32, marked *, two repeats), read-out: MCT4 lactate efflux pIC50 (SKBR3) (converted). The assay is classed as cell-based. Here is the method: Assay plates were lidded and incubated for 4 hours at 37° C. and 5% CO2.

Regarding `Cc1nc2nc(C)c(O[C@@H]3CCN(c4cnc(-c5ccc([C@@H](C)N6CCOCC6)cc5)cn4)C3)c(C)n2n1` (single isomer, unassigned) [Example 86], the IC50 is > 25100 nM in assay [1], 12.6 nM in assay [2], 3.16 nM in assay [3] and 2.51 nM in assay [4].
Take `Cc1nc2nc(C)c(O[C@@H]3CCN(c4cnc(-c5ccc(C(C)N6CCOCC6)cc5)cn4)C3)c(C)n2n1` (single isomer, unassigned) [Example 87]: the IC50 is > 25100 nM in assay [1], 12.6 nM in assay [2], 3.98 nM in assay [3] and 1.26 nM in assay [4].
In the same order, the values of `COCCN1CCN(Cc2ccc(-c3cnc(N4CC[C@@H](Cc5c(C)nc6nc(C)nn6c5C)C4)cn3)cc2)CC1` [Example 42, (R)-6-((1-(5-(4-((4-(2-methoxyethyl)piperazin-1-yl)methyl)phenyl)pyrazin-2-yl)pyrrolidin-3-yl)methyl)-2,5,7-trimethyl-[1,2,4]triazolo[1,5-a]pyrimidine] are > 25100 nM, 10 nM, 6.31 nM and 0.794 nM.
In the case of `Cc1nc2nc(C)c(C[C@@H]3CCN(c4cnc(-c5ccc(CN6CCOCC6)cc5)cn4)C3)c(C)n2n1` [Example 60, (R)-4-(4-(5-(3-((2,5,7-trimethyl-[1,2,4]triazolo[1,5-a]pyrimidin-6-yl)methyl)pyrrolidin-1-yl)pyrazin-2-yl)benzyl)morpholine], the IC50 in assay [1] is 12600 nM; in assay [2] it was 7.94 nM; in assay [3], 5.01 nM; in assay [4], 0.398 nM.
The like results for `Cc1nc2nc(C)c(O[C@@H]3CCN(c4ccc(-c5ccc(CN6CCCCC6)nn5)cc4)C3)c(C)n2n1` [Example 64, (R)-2,5,7-trimethyl-6-((1-(4-(6-(piperidin-1-ylmethyl)pyridazin-3-yl)phenyl)pyrrolidin-3-yl)oxy)-[1,2,4]triazolo[1,5-a]pyrimidine] were, in that order, > 25100 nM, 50.1 nM, 15.8 nM and 1.58 nM.
In the same order, the values of `Cc1nc2nc(C)c(O[C@@H]3CCN(c4ccc(-c5ccc(CN6C7CCC6CN(C)C7)nn5)cc4)C3)c(C)n2n1` [Example 66, 2,5,7-trimethyl-6-(((3R)-1-(4-(6-((3-methyl-3,8-diazabicyclo[3.2.1]octan-8-yl)methyl)pyridazin-3-yl)phenyl)pyrrolidin-3-yl)oxy)-[1,2,4]triazolo[1,5-a]pyrimidine] are > 25100 nM, 50.1 nM, 25.1 nM and 2 nM.
As to `Cc1nc2nc(C)c(O[C@@H]3CCN(c4ccc(-c5ccc(CN6CCN7CCC[C@@H]7C6)nn5)cc4)C3)c(C)n2n1` [Example 67, 6-(((R)-1-(4-(6-(((R)-hexahydropyrrolo[1,2-a]pyrazin-2(1H)-yl)methyl)pyridazin-3-yl)phenyl)pyrrolidin-3-yl)oxy)-2,5,7-trimethyl-[1,2,4]triazolo[1,5-a]pyrimidine], the values for the IC50 in assay [1], in assay [2] and in assay [4] were > 25100 nM, 63.1 nM and 2 nM, respectively.
In the same order, the values of `Cc1nc2nc(C)c(O[C@@H]3CCN(c4ccc(-c5ccc(CN6CCN7CCC[C@H]7C6)nn5)cc4)C3)c(C)n2n1` [Example 68, 6-(((R)-1-(4-(6-(((S)-hexahydropyrrolo[1,2-a]pyrazin-2(1H)-yl)methyl)pyridazin-3-yl)phenyl)pyrrolidin-3-yl)oxy)-2,5,7-trimethyl-[1,2,4]triazolo[1,5-a]pyrimidine] are > 25100 nM, 100 nM and 3.16 nM.
As for `Cc1nc2nc(C)c(O[C@@H]3CCN(c4ccc(-c5cnc(CN6CCOCC6)nc5)cc4)C3)c(C)n2n1` [Example 69, (R)-4-((5-(4-(3-((2,5,7-trimethyl-[1,2,4]triazolo[1,5-a]pyrimidin-6-yl)oxy)pyrrolidin-1-yl)phenyl)pyrimidin-2-yl)methyl)morpholine], the IC50 in assay [1] is > 25100 nM; in assay [2] it was 12.6 nM; in assay [3], 3.16 nM; in assay [4] it was 2 nM.
In the same order, the values of `Cc1nc2nc(C)c(O[C@@H]3CCN(c4ccc(-c5cnc(CN6CCOCC6)cn5)cc4)C3)c(C)n2n1` [Example 70, (R)-4-((5-(4-(3-((2,5,7-trimethyl-[1,2,4]triazolo[1,5-a]pyrimidin-6-yl)oxy)pyrrolidin-1-yl)phenyl)pyrazin-2-yl)methyl)morpholine] are > 25100 nM, 5.01 nM, 1.58 nM and 0.631 nM.
Consider `CCN1CCN(Cc2ccc(-c3ccc(N4CC[C@@H](Oc5c(C)nc6nc(C)nn6c5C)C4)cc3)nn2)CC1` [Example 72, (R)-6-((1-(4-(6-((4-ethylpiperazin-1-yl)methyl)pyridazin-3-yl)phenyl)pyrrolidin-3-yl)oxy)-2,5,7-trimethyl-[1,2,4]triazolo[1,5-a]pyrimidine], for which the IC50 in assay [1] is > 25100 nM; in assay [2], 79.4 nM; in assay [4] it was 2.51 nM.
For `COCCN1CCN(Cc2ccc(-c3ccc(N4CC[C@@H](Oc5c(C)nc6nc(C)nn6c5C)C4)cc3)nn2)CC1` [Example 73, (R)-6-((1-(4-(6-((4-(2-methoxyethyl)piperazin-1-yl)methyl)pyridazin-3-yl)phenyl)pyrrolidin-3-yl)oxy)-2,5,7-trimethyl-[1,2,4]triazolo[1,5-a]pyrimidine], the IC50 in assay [1] was > 25100 nM; in assay [2], 50.1 nM; in assay [3], 31.6 nM; in assay [4] it was 3.16 nM.
In the same order, the values of `Cc1nc2nc(C)c(O[C@@H]3CCN(c4ccc(-c5ccc(CN6CCOCC6)cn5)cn4)C3)c(C)n2n1` [Example 74, (R)-4-((6′-(3-((2,5,7-trimethyl-[1,2,4]triazolo[1,5-a]pyrimidin-6-yl)oxy)pyrrolidin-1-yl)-[2,3′-bipyridin]-5-yl)methyl)morpholine] are > 25100 nM, 10 nM, 2 nM and 2 nM.
The like results for `Cc1nc2nc(C)c(O[C@@H]3CCN(c4ccc(-c5ccc(CN6CCOCC6)nc5)cn4)C3)c(C)n2n1` [Example 75, (R)-4-((6′-(3-((2,5,7-trimethyl-[1,2,4]triazolo[1,5-a]pyrimidin-6-yl)oxy)pyrrolidin-1-yl)-[3,3′-bipyridin]-6-yl)methyl)morpholine] were, in that order, > 25100 nM, 12.6 nM, 3.16 nM and 3.16 nM.
In the same order, the values of `Cc1nc2nc(C)c(C[C@@H]3CCN(c4cnc(-c5ccc(CN6CCCC6)cn5)cn4)C3)c(C)n2n1` [Example 81, (R)-2,5,7-trimethyl-6-((1-(5-(5-(pyrrolidin-1-ylmethyl)pyridin-2-yl)pyrazin-2-yl)pyrrolidin-3-yl)methyl)-[1,2,4]triazolo[1,5-a]pyrimidine] are 5010 nM, 15.8 nM, 3.16 nM and 3.16 nM.
For `Cc1nc2nc(C)c(O[C@@H]3CCN(c4ccc(-c5ccc(CN6CCCOCC6)nn5)cc4)C3)c(C)n2n1` [Example 84, (R)-4-((6-(4-(3-((2,5,7-trimethyl-[1,2,4]triazolo[1,5-a]pyrimidin-6-yl)oxy)pyrrolidin-1-yl)phenyl)pyridazin-3-yl)methyl)-1,4-oxazepane], the IC50 in assay [1] is > 25100 nM; in assay [2], 7.94 nM; in assay [3], 3.98 nM; in assay [4], 1 nM.

Source of the values: patent US12503473B2, “Triazolopyrimidine compounds and their use in treating cancer” (Dizal (Jiangsu) Pharmaceutical Co., Ltd., priority 2018, dated 2025).
